Experiments:
[1] = (§1) Total body clearance in human; settings: in vivo
[2] = organism: Homo sapiens; settings: in vivo
[3] = clinical; settings: human, in vivo
[4] = organism: Homo sapiens; assay: as §1; settings: in vivo

Row | Structure (SMILES) | clearance [1] | CL_renal [2] | CL renal [3] | CL [4]
1 | CN1C(C(=O)Nc2ccccn2)=C(O)c2sccc2S1(=O)=O [TENOXICAM] | 0.03 mL/min/kg | 0 mL/min/kg | – | –
2 | CCc1cccc2cc(C(O)CNC(C)(C)C)oc12 (stereo not given) [BUFURALOL] | – | 0 mL/min/kg | – | –
3 | CN(C)[C@@H]1C(O)=C(C(N)=O)C(=O)[C@@]2(O)C(O)=C3C(=O)c4c(O)cccc4[C@@](C)(O)[C@H]3[C@H](O)[C@@H]12 [OXYTETRACYCLINE] | 2 mL/min/kg | – | 1.4 mL/min/kg | –
4 | COc1ccc([C@]2(C#N)CC[C@@H](C(=O)O)CC2)cc1OC1CCCC1 [CILOMILAST] | 0.5 mL/min/kg | – | 0.01 mL/min/kg | –
5 | CN1CCN2c3ncccc3Cc3ccccc3C2C1 (stereo not given) [MIRTAZAPINE] | 8 mL/min/kg | – | 0.32 mL/min/kg | –
6 | O=C1Nc2ccc(Cl)cc2C(c2ccccc2Cl)=NC1O (stereo not given) [LORAZEPAM] | 1 mL/min/kg | – | 0.01 mL/min/kg | –
7 | CC(C)NCC(O)c1ccc(NS(C)(=O)=O)cc1 (stereo not given) [SOTALOL] | 2 mL/min/kg | – | 1.7 mL/min/kg | –
8 | C#CCN(C)[C@H](C)Cc1ccccc1 [SELEGILINE] | 20 mL/min/kg | – | 0.2 mL/min/kg | –
9 | N[C@@H](CC(=O)N1CCn2c(nnc2C(F)(F)F)C1)Cc1cc(F)c(F)cc1F [SITAGLIPTIN] | 6 mL/min/kg | – | 4.74 mL/min/kg | –
10 | CN(C)CCc1c[nH]c2ccc(Cn3cncn3)cc12 [RIZATRIPTAN] | 19 mL/min/kg | – | 5.32 mL/min/kg | –
11 | CC[C@@H](CO)NCCN[C@@H](CC)CO [ETHAMBUTOL] | 10 mL/min/kg | – | 7.3 mL/min/kg | –
12 | O=C(NCCN1CCOCC1)c1ccc(Cl)cc1 [MOCLOBEMIDE] | 10 mL/min/kg | – | 0.05 mL/min/kg | –
13 | CNCCC=C1c2ccccc2CCc2ccccc21 [NORTRIPTYLINE] | 10 mL/min/kg | – | 0.2 mL/min/kg | –
14 | CCN1CCN(C(=O)N[C@@H](C(=O)N[C@@H]2C(=O)N3[C@@H]2SC(C)(C)[C@@H]3C(=O)O)c2ccccc2)C(=O)C1=O [PIPERACILLIN] | 4 mL/min/kg | – | 3.2 mL/min/kg | –
15 | CC1COc2c(N3CCN(C)CC3)c(F)cc3c(=O)c(C(=O)O)cn1c23 (stereo not given) [OFLOXACIN] | 3.5 mL/min/kg | – | 2.7 mL/min/kg | –
16 | CCCn1c(=O)[nH]c(=O)c2[nH]cnc21 [ENPROFYLLINE] | 4 mL/min/kg | – | 3.56 mL/min/kg | –
17 | CC(C)N(CCC(C(N)=O)(c1ccccc1)c1ccccn1)C(C)C (stereo not given) [DISOPYRAMIDE] | 0.9 mL/min/kg | – | 0.5 mL/min/kg | –
18 | C[C@@H]1O[C@@H]1P(=O)(O)O [FOSFOMYCIN] | 2 mL/min/kg | – | 2 mL/min/kg | –
19 | Clc1cccc(Cl)c1N=C1NCCN1 [CLONIDINE] | 4 mL/min/kg | – | 2.48 mL/min/kg | –
20 | CO[C@H]1/C=C/O[C@@]2(C)Oc3c(C)c(O)c4c(O)c(c(/C=N/N5CCN(C)CC5)c(O)c4c3C2=O)NC(=O)/C(C)=C\C=C\[C@H](C)[C@H](O)[C@@H](C)[C@@H](O)[C@@H](C)[C@H](OC(C)=O)[C@@H]1C [RIFAMPIN] | 1.5 mL/min/kg | – | 0.2 mL/min/kg | –
21 | CCN(CC)CCNC(=O)c1ccc(NC(C)=O)cc1 [ACECAINIDE] | 4 mL/min/kg | – | 3.2 mL/min/kg | –
22 | CCN1CCCC1CNC(=O)c1cc(S(N)(=O)=O)ccc1OC (stereo not given) [SULPIRIDE] | 1.83 mL/min/kg | – | 1.7 mL/min/kg | –
23 | COc1cccc2c1C(=O)c1c(O)c3c(c(O)c1C2=O)C[C@@](O)(C(=O)CO)C[C@@H]3O[C@H]1C[C@H](N)[C@@H](O)[C@H](C)O1 [EPIRUBICIN] | 20 mL/min/kg | – | 2.44 mL/min/kg | –
24 | CCN(CC)C(=O)/C(C#N)=C/c1cc(O)c(O)c([N+](=O)[O-])c1 [ENTACAPONE] | 11.7 mL/min/kg | – | 6.4 mL/min/kg | –
25 | Cc1ccnc2c1NC(=O)c1cccnc1N2C1CC1 [NEVIRAPINE] | 0.3 mL/min/kg | – | 0.01 mL/min/kg | –
26 | COCc1c(C(C)C)nc(C(C)C)c(/C=C/[C@@H](O)C[C@@H](O)CC(=O)O)c1-c1ccc(F)cc1 [CERIVASTATIN] | – | 0 mL/min/kg | – | –
27 | Cc1ncc2n1-c1ccc(Cl)cc1C(c1ccccc1F)=NC2 [MIDAZOLAM] | – | 0 mL/min/kg | – | –
28 | CCCCS(=O)(=O)N[C@@H](Cc1ccc(OCCCCC2CCNCC2)cc1)C(=O)O [TIROFIBAN] | – | – | 1.59 mL/min/kg | 4.3 mL/min/kg
29 | CCCCCCCN(CC)CCCC(O)c1ccc(NS(C)(=O)=O)cc1 (stereo not given) [IBUTILIDE] | 25 mL/min/kg | – | 2.5 mL/min/kg | –

From ChEMBL document CHEMBL1151930, “Physicochemical determinants of human renal clearance” (J Med Chem, 2009)
